According to patent US8987340B2, “Sublimable sustained release delivery system and method of making same” (Oakwood Laboratories, LLC, priority 2005, dated 2015):

Test: In vivo sublimation (disappearance) of pellets from subcutaneous implant sites
Set-up: species or system Sprague-Dawley male rats
Settings: subcutaneous implant in neck scruff of rats, explanted pellet mass (FIG. 11)
Procedure: The in-vivo disappearance rates of hexamethylethane and adamantane pellets from subcutaneous implant sites in rats were assessed over a 16-week period. Forty six Sprague-Dawley male rats of similar age and weight were assigned into five treatment groups: hexamethylethane pellet implantation (Group H), adamantane pellet implantation (Group A), PLGA (Boehringer Ingelheim Resomer RG 504H) pellet implantation (Group P), a sham group for which surgery was performed without pellet implantation, and a control (no surgery) group. Pellets were individually weighed, and implanted into the neck scruff of rats. Explantation and reweighing of adamantane pellets was performed at 4 and 8 days, and 2, 4, 8, and 10 weeks; hexamethylethane pellets were explanted and weighed at 4 and 24 hours, and 4, 8, and 14 days.

C1C2CC3CC1CC(C2)C3 [adamantane]
in-vivo sublimation / disappearance period of pellets: over a period of at least two months

CC(C)(C)C(C)(C)C [hexamethylethane, 2,2,3,3-Tetramethylbutane]
in-vivo sublimation / disappearance period of pellets: over a period as short as one week
